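A five-concentration, 48-hour dose response in 96-well plates underlies each endpoint, interpolated linearly between surrounding concentrations. Abbreviation: GI50, concentration required for 50% inhibition of growth.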 Activity calls are given as the source filed them. Cut-off read from the data, not from the text of the source: active = GI50 up to about 1.1 µM and inactive = higher.
What was measured:
Assay in all cases: inhibition of tumour cell growth, NCI panel, 48 h
DLD-1 = system: DLD-1
DMS-273 = system: DMS-273
KM-20L2 = system: KM-20L2
LXFL 529 = system: LXFL 529
M19-MEL = system: M19-MEL
RXF 631 = system: RXF 631
SNB-78 = system: SNB-78
XF498 = system: XF498
HOP-18 = system: HOP-18

| SMILES | GI50 (DLD-1) | GI50 (DMS-273) | GI50 (KM-20L2) | GI50 (LXFL 529) | GI50 (M19-MEL) | GI50 (RXF 631) | GI50 (SNB-78) | GI50 (XF498) | GI50 (HOP-18) |
| --- | --- | --- | --- | --- | --- | --- | --- | --- | --- |
| COc1ccc(OC(C)C(=O)O)c2c(=O)ccccc12 (centres undefined) | > 100 µM (inactive) | > 100 µM (inactive) | > 100 µM (inactive) | > 100 µM (inactive) | > 100 µM (inactive) | > 100 µM (inactive) | > 100 µM (inactive) | > 100 µM (inactive) | – |
| CC(=O)N(C)C=C1C(=O)N(C)C(=O)N(C)C1=O | > 100 µM (inactive) | > 100 µM (inactive) | > 100 µM (inactive) | > 100 µM (inactive) | > 100 µM (inactive) | > 100 µM (inactive) | – | > 100 µM (inactive) | > 100 µM (inactive) |
| CCCC(O)C(NC(=O)CCl)C(=O)O (centres undefined) | > 100 µM (inactive) | > 100 µM (inactive) | > 100 µM (inactive) | – | > 100 µM (inactive) | – | > 100 µM (inactive) | > 100 µM (inactive) | > 100 µM (inactive) |
| CSCCC(NC(=O)C(Cc1ccccc1)NC(=O)CNC(=O)CNC(=O)C(N)Cc1ccc(O)cc1)C(=O)O (centres undefined) | – | > 100 µM (inactive) | > 20.3 µM (inactive) | – | > 100 µM (inactive) | – | > 100 µM (inactive) | – | > 100 µM (inactive) |
| COc1ccc2c(c1O)C(=O)C(CCC(=O)O)CC2 (centres undefined) | > 100 µM (inactive) | > 100 µM (inactive) | > 100 µM (inactive) | > 100 µM (inactive) | > 100 µM (inactive) | > 100 µM (inactive) | > 100 µM (inactive) | > 100 µM (inactive) | > 100 µM (inactive) |
| C[C@]12C/C(=C/O)C(=O)C(O)=C1CC[C@@H]1C2CC[C@@]2(C)C1CC[C@@H]2O (some centres undefined) | – | 23.5 µM (inactive) | 22.6 µM (inactive) | 16.2 µM (inactive) | 21.2 µM (inactive) | 20.6 µM (inactive) | 19.7 µM (inactive) | 17.6 µM (inactive) | 33.7 µM (inactive) |
| O=C1CC2(CCC3=C(O2)c2ccccc2NC(=O)C3)C(=O)c2ccccc2N1 (centres undefined) | – | > 100 µM (inactive) | > 100 µM (inactive) | > 100 µM (inactive) | > 100 µM (inactive) | – | > 100 µM (inactive) | > 100 µM (inactive) | – |
| Cc1cccc(=O)c([O-])c1.Cc1cccc(=O)c([O-])c1.[Bi+3].[Cl-] | 9.95 µM (inactive) | 7.29 µM (inactive) | 2.99 µM (inactive) | – | 11 µM (inactive) | – | 24 µM (inactive) | – | – |
| CN(C)CCCNc1ccc2ncn3c4ccc(O)cc4c(=O)c1c23 | 1.4 µM (inactive) | 0.246 µM (active) | 1.59 µM (inactive) | 1.87 µM (inactive) | 1.53 µM (inactive) | 0.318 µM (active) | 9.73 µM (inactive) | 3.83 µM (inactive) | 3.86 µM (inactive) |
| NC(=O)c1ncn2c1NCC1OC2C(O)C1O (centres undefined) | > 100 µM (inactive) | > 100 µM (inactive) | > 100 µM (inactive) | > 100 µM (inactive) | > 100 µM (inactive) | > 100 µM (inactive) | > 100 µM (inactive) | > 100 µM (inactive) | > 100 µM (inactive) |
| COC(=O)C1=C(O)c2cc(OC)c(OC)c(OC)c2[C@H](c2cc(OC)c(OC)c(OC)c2)C1C(=O)OC (some centres undefined) | 45.1 µM (inactive) | 15.8 µM (inactive) | 18.2 µM (inactive) | 31.1 µM (inactive) | – | 41.7 µM (inactive) | 32.1 µM (inactive) | 51.8 µM (inactive) | – |
| COc1ccc(OC)c(CC(C)N)c1 (centres undefined) | > 100 µM (inactive) | – | > 100 µM (inactive) | > 100 µM (inactive) | > 100 µM (inactive) | – | – | > 100 µM (inactive) | > 100 µM (inactive) |
| CCCc1ccc(NCc2cc(OC)c(OC)c(OC)c2)cc1 | 23.9 µM (inactive) | – | 28.6 µM (inactive) | 17 µM (inactive) | 20.5 µM (inactive) | – | 56.9 µM (inactive) | 18.9 µM (inactive) | 31.3 µM (inactive) |

Reference: ChEMBL document CHEMBL1201862, “PubChem BioAssay data set” (2004)
